Experimental findings from PubChem BioAssay (NCI) are described below.

The structures appear in SMILES notation. Where “and” joins values, the source holds several entries; their conditions need not be identical. Identical values can stand only once.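 Interpolation was linear, between the two tested concentrations surrounding the appropriate level; five concentrations were tested over 48 hours in 96-well plates. GI50 is the concentration that inhibits growth by half. TGI: total growth inhibition.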

Test in all cases: growth of human tumour cells (NCI), 48 h
For assay [1], the system named is K-562 leukemia.
In assay [2] the test system is MDA-MB-435.
Assay [3] deals with A549 NSCLC.
Assay [4] concerns HCT-15 colon.
Assay [5] relates to DU-145 prostate.
Assay [6] has as its system SK-MEL-28 melanoma.
For assay [7], the system named is SK-MEL-2 melanoma.
Assay [8] concerns CCRF-CEM leukemia.
In assay [9] the test system is NCI-H522 lung.
The test system of assay [10] is HT29 colon.

For `C=C1CCC2C3(C)COC(c4ccc(N(C)C)cc4)OC3CCC2(C)C1C/C=C1/C(=O)OCC1O` (stereo not given), the GI50 in assay [1] is 1.22 µM; in [2] it was 2.88 µM; in assay [3], 4.73 µM; in assay [4], 1.91 µM; in [5] it was 3.01 µM; in assay [6] it was 2.34 µM. Also, the GI50 is 5.15 µM in assay [7], 1.35 µM in [8], 3.22 µM in [9] and 2.43 µM in assay [10]. For the same molecule, the TGI stood at 3.37 µM in assay [1]; 10.5 µM in assay [2]; 17.3 µM in assay [3]; 6 µM in assay [4]; 10.4 µM in [5]; 5.4 µM in assay [6]. In addition, the TGI in assay [7] was found to be 13.7 µM; in assay [8] it was 3.99 µM; in assay [9], 14 µM; in assay [10], 6.19 µM.
With `COc1ccc2c(c1)c(=O)oc1cc(OC/C(C)=N\O)ccc12`, the GI50 in [1], in [2], in assay [3], in [4], in assay [5] and in assay [6] was greater than 100 µM each time. The GI50 is greater than 100 µM in [7], greater than 100 µM in assay [8], 44.5 µM in [9] and greater than 100 µM in assay [10]. Also, the TGI in assay [1], in assay [2], in [3], in assay [4], in assay [5] and in assay [6] was greater than 100 µM throughout. For the same molecule, the TGI in [7], in assay [8], in assay [9] and in assay [10] was greater than 100 µM in each case.
For `FC(F)(F)c1ccc(Nc2nc(-c3c(C(F)(F)F)nc4ccccn34)cs2)cc1`, the GI50 in [1] was 0.0396 µM; in assay [2] it was 0.0161 µM; in [3], 0.0625 µM; in assay [4], 0.0406 µM; in [5] it was 0.0402 µM; in assay [6], 1.05 µM. The GI50 in assay [7] was 0.0734 µM; in assay [8], 0.0502 µM; in assay [9] it was 0.0284 µM; in [10], 0.0364 µM. The TGI in [1] was 8.18 µM; in [2], 0.0473 µM; in assay [3], 10.6 µM; in assay [4], 5.64 µM; in assay [5], 2.15 µM; in assay [6], 16.9 µM. Also, the TGI was 6.76 µM in assay [7], greater than 30.8 µM in assay [8], 0.754 µM in [9] and 1.99 µM in assay [10].
Take `CCN(CC)CCCC(C)Nc1ccnc2cc(Oc3ccccc3)ccc12` (stereo not given): the GI50 in assay [1] was 1.87 µM and 2.56 µM; in assay [2], 2.38 µM; in [3] it was 4.13 µM and 14.2 µM; in assay [4], 4.34 µM and 3.94 µM; in assay [5], 5.73 µM and 54.6 µM; in assay [6], 1.73 µM and 1.99 µM. Also, the GI50 was 3.05 µM and 2.36 µM in assay [7]; 2.64 µM and 4.69 µM in assay [8]; 3.06 µM and 3.77 µM in [9]; 0.627 µM and 1.12 µM in [10]. Further, the TGI is 4.88 µM and 7.92 µM in assay [1]; 6.21 µM and 7.27 µM in [2]; 14.8 µM and 47.6 µM in [3]; 28.3 µM and 20.1 µM in assay [4]; 22.4 µM and > 100 µM in assay [5]; 3.22 µM and 3.65 µM in assay [6]. Moreover, the TGI in assay [7] was 8.96 µM and 5.68 µM; in assay [8] it was 12.8 µM and 55.6 µM; in [9], 13 µM and 17 µM; in assay [10] it was 8.37 µM and 12 µM.
For `C[C@H]1[C@H](C)CC[C@]2(CO)CC[C@]3(C)C(=CC[C@@H]4[C@@]5(C)CCCNC(C)(C)[C@@H]5CC[C@]43C)[C@H]12`, the GI50 in assay [1] was 0.471 µM; in [2], 1.59 µM; in [3] it was 1.74 µM; in [4], 1.37 µM; in assay [5], 1.72 µM; in [6], 1.75 µM. The GI50 in assay [7] is 1.9 µM; in assay [8] it was 1.74 µM; in [9], 1.71 µM; in assay [10], 0.628 µM. Moreover, the TGI in [1] is 2.02 µM; in assay [2], 3.21 µM; in assay [3], 3.28 µM; in assay [4], 2.75 µM; in assay [5], 3.14 µM; in assay [6], 3.3 µM. The TGI in assay [7] came to 3.63 µM; in [8], 3.93 µM; in assay [9] it was 3.32 µM; in assay [10] it was 1.97 µM.
`COc1ccc(/C(COc2ccc3c(=O)cc(-c4ccccc4)oc3c2)=N\O)cc1`: the GI50 in assay [1] was 17.5 µM; in [2] it was 6.77 µM; in assay [3] it was 20.1 µM; in assay [4] it was 22.8 µM; in assay [5], 11.5 µM; in assay [6], 19.5 µM. The GI50 in assay [7] was 13.3 µM; in assay [8], greater than 50 µM; in [9], 7.32 µM; in assay [10], 25.6 µM. In addition, the TGI in assay [1] is greater than 50 µM; in assay [2], 23.9 µM; in assay [3], greater than 50 µM; in assay [4], greater than 50 µM; in assay [5], greater than 47.4 µM; in [6] it was greater than 41.9 µM. The TGI in [7] was greater than 39.1 µM; in assay [8], greater than 50 µM; in [9], 26.6 µM; in assay [10] it was greater than 50 µM.
For `COc1cc([C@@H]2OC[C@@H]3C(c4cc(OC)c5c(c4)OCO5)OC[C@@H]32)cc(OC)c1OC` (stereo not given in full), the TGI in [1], in assay [2], in assay [3], in assay [4], in assay [5] and in assay [6] was greater than 100 µM in each case. Besides, the TGI in assay [7], in assay [8], in assay [9] and in [10] was greater than 100 µM each time.
